# Active and inactive are the calls of the source.
# Assays:
# [1] = cells; format: functional
# [2] = cytotoxicity in HEK-293T cells, dose response, cytotoxicity control for TCR NF-kB inhibitor project, luminescence, T-cell screen hits (AID 489026); format: functional, cell-based;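 further: cells exposed to compound about 14 hours before the viability readout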
# [3] = target: T1, Leucine aminopeptidase (Plasmodium falciparum 3D7, UniProt Q8IL11); assay: P. falciparum M17LAP inhibitors, primary screen, biochemical, fluorogenic H-Leu-NHMec substrate, 1536-well (AID 1619); format: functional
# T1 sequence (Q8IL11 whole entry): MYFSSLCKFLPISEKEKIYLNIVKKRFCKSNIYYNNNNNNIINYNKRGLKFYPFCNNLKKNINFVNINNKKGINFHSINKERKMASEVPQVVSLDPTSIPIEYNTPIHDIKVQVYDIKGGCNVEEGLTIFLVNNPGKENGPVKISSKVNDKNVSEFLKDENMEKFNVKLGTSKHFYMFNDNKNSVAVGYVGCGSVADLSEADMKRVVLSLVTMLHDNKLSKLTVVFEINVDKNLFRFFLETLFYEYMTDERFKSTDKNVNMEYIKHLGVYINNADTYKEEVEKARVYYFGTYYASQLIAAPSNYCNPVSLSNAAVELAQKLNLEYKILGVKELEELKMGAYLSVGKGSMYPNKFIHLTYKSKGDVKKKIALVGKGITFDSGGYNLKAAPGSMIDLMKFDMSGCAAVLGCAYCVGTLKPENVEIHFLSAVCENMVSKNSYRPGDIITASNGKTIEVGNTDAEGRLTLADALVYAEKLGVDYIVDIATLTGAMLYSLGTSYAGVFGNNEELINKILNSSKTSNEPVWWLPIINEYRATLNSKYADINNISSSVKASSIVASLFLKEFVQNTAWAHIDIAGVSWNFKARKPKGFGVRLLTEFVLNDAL
# [4] = target: Cytochrome P450 2C9 (Homo sapiens, UniProt P11712)
# [5] = target: FAD-linked sulfhydryl oxidase ALR (Homo sapiens, UniProt P55789); assay: inhibitors of human ALR sulfhydryl oxidase, dose response, biochemical, H2O2 detection, luminescence, cherry-pick (AID 493248)
# [6] = target: Large T antigen (Simian virus 40, UniProt P03070); format: functional, Betapolyomavirus macacae;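 further: Confirmatory-stage PubChem screen for compounds that inhibit SV40 T antigen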
# [7] = growth suppression of PTEN-null colon cells, dose response, cell-based, HCT116 PTEN knockout (AID 1047); format: functional;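 further: HCT116 colon tumor cells with PTEN knocked out; cells exposed to compound for 60 hours before readout; potency for loss of cell viability measured by luminescence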
# [8] = C. albicans growth with fluconazole, confirmation, fluorescence, retest (AID 2467); format: functional, cell-based
# [9] = growth suppression of beta-catenin-knockout colon cells, dose response, cell-based, HCT116, human colon tumor (AID 1045); format: functional;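 further: HCT116 colon tumor cells with beta catenin knocked out; cells exposed to compound for 60 hours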
# [10] = microbe, parasite or virus in culture; format: functional; settings: Mycobacterium tuberculosis
# [11] = NIH-3T3 fibroblast cytotoxicity, dose response, cytotoxicity control, cell-based, fluorescence, Alamar Blue, secondary assay (AID 2327); format: functional;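 further: NIH-3T3 mouse fibroblasts cultured with fluconazole at 8 µg/mL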
# [12] = target: T2, Streptokinase A (Streptococcus pyogenes serotype M1, UniProt P10520); assay: S. pyogenes streptokinase expression inhibitors, potency, dose response, plasminogen activation absorbance, OD405 (AID 1914); format: functional, Streptococcus pyogenes M1 GAS;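 further: secreted streptokinase activity via plasminogen activation per viability signal from cell pellet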
# T2 sequence (P10520 whole entry): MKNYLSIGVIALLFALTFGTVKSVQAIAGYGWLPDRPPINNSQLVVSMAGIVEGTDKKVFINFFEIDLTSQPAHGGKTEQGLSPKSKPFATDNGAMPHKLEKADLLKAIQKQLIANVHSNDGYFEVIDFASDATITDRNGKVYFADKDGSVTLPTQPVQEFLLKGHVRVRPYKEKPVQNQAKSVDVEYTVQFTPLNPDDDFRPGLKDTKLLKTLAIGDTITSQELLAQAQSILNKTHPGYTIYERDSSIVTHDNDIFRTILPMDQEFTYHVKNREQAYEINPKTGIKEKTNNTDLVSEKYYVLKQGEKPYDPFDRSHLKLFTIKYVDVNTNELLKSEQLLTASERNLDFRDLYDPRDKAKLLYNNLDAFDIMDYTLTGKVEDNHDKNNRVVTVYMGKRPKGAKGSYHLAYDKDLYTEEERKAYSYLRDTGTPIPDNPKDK
# [13] = system: Streptococcus sp. 'group A'; assay: growth inhibition of control SK(-) GAS strain, dose response, counter-screen for streptokinase expression inhibitor project, luminescence, kanamycin, BacTiterGlo, confirmation (AID 1900); format: functional, organism-based
# [14] = system: Streptococcus; assay: Group A Streptococcus viability loss, dose response, counter-screen for streptokinase expression inhibitor project, luminescence, BacTiterGlo (AID 1915); format: functional, organism-based;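 further: potency for reduction of bacterial viability or growth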
# [15] = HEp-2 cell cytotoxicity, dose response, cytotoxicity control for RSV inhibitor project, HTS (AID 2410); format: functional; settings: human respiratory syncytial virus
# [16] = target: Cytochrome P450 3A4 (Homo sapiens, UniProt P08684);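 further: CYP3A4 tested as one member of a cytochrome P450 panel screen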
# [17] = target: Cytochrome P450 2C19 (Homo sapiens, UniProt P33261); assay: Cytochrome panel assay with activity outcomes. Panel member name: p450-cyp2c19 Compounds with AC50 equal or less than 10 uM are considered active; format: functional; settings: read-out: AC50
# [18] = system: INS1; assay: beta cell apoptosis inhibitors, cytokine rescue, dose response, luminescence, retest (AID 449756); format: functional, cell-based; settings: Rattus norvegicus;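 further: cell death triggered by IL-1 beta plus TNF-alpha plus IFN-gamma mixture; protective hits raise ATP signal compared with cytokine alone wells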
# [19] = inhibitors of SNCA 5'UTR-driven reporter translation, confirmation, H4 neuroglioma cells, luminescence (AID 1988); format: functional, cell-based
# [20] = Luminescence Cell-Based Dose Response HTS to Identify Inhibitors of 5'UTR Stem-Loop Driven Prion Protein mRNA Translation in H4 Neuroglioblastoma Cells. [Related pubchem assays: 1827 (Project Summary), 1813 (Primary HTS)]; format: functional
# [21] = inhibitors of firefly luciferase expression or activity, dose response, H4 neuroglioma cells, luminescence (AID 1990); format: functional, cell-based
# [22] = cytotoxicity toward NIH3T3 fibroblasts, dose response, counter-screen, cell-based, ATP luminescence, mouse fibroblasts (AID 2010); format: functional;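 further: cells exposed to compound for about 90 hours before reading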
# [23] = HepG2 cell cytotoxicity, dose response, cytotoxicity control for Shn3 inhibitor project, CellTiter-Glo, cherry-picked (AID 624134); format: functional, cell-based
# [24] = inhibitors of intracellular T. cruzi replication, confirmation, NIH3T3 host cells, beta-gal luminescence (AID 2044); format: functional, cell-based;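 further: intracellular parasites grown in NIH/3T3 mouse fibroblasts as host cells; luminescent beta-galactosidase reporter signal from transgenic T. cruzi replicating inside host cells; inhibitors lower the luminescence signal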
# [25] = control 3'UTR Renilla luciferase suppression, dose response, counter-screen for Shn3 inhibitor project, cell-based, Clone20-Shn3RL, cherry-picked (AID 624133); format: functional
# [26] = Shn3 3'UTR reporter inhibitors, dose response, cell-based, Clone20 osteoblasts, firefly luciferase, cherry-picked (AID 624132); format: functional;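 further: firefly luciferase luminescence from reporter carrying the Shn3 3'UTR in osteoblasts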
# Chain of Cytochrome P450 2C9 (P11712 whole entry): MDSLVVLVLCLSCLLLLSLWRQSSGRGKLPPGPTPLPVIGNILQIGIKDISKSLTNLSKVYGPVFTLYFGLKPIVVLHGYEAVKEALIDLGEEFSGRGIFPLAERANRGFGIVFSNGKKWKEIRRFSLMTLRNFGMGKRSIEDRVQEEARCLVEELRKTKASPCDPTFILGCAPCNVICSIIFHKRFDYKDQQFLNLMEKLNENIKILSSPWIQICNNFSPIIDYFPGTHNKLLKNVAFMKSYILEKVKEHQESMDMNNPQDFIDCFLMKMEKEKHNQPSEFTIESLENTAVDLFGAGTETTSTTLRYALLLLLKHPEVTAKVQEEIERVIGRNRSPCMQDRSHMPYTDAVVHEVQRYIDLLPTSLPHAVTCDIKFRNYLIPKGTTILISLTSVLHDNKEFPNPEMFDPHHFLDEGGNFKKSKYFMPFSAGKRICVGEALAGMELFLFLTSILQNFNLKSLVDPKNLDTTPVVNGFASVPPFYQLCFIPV
# Chain of Large T antigen (P03070 whole entry): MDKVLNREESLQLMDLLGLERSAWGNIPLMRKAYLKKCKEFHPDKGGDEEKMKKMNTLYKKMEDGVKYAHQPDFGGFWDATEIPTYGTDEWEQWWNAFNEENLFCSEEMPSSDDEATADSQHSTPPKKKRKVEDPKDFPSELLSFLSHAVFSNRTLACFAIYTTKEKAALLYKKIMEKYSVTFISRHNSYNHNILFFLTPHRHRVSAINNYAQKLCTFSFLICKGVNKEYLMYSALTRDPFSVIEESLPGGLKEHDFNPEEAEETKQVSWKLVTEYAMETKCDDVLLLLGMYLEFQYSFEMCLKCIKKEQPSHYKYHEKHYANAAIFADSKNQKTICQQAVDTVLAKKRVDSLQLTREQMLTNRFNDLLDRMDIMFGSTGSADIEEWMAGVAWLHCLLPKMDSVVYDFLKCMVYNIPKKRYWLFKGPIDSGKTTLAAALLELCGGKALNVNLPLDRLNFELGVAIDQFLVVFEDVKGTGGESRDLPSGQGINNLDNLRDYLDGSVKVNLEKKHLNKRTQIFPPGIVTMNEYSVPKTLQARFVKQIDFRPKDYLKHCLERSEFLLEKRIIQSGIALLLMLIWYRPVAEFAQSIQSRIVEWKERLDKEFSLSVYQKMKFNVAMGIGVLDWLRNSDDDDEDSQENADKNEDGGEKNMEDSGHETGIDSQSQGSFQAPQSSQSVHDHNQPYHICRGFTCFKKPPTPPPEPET
# Chain of FAD-linked sulfhydryl oxidase ALR (P55789 whole entry): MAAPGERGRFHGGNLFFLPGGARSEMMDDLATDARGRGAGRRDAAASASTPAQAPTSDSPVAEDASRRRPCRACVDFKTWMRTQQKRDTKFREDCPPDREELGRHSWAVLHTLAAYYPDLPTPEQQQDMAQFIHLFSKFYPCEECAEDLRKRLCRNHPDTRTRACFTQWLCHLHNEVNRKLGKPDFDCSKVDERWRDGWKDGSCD
# Chain of Cytochrome P450 3A4 (P08684 whole entry): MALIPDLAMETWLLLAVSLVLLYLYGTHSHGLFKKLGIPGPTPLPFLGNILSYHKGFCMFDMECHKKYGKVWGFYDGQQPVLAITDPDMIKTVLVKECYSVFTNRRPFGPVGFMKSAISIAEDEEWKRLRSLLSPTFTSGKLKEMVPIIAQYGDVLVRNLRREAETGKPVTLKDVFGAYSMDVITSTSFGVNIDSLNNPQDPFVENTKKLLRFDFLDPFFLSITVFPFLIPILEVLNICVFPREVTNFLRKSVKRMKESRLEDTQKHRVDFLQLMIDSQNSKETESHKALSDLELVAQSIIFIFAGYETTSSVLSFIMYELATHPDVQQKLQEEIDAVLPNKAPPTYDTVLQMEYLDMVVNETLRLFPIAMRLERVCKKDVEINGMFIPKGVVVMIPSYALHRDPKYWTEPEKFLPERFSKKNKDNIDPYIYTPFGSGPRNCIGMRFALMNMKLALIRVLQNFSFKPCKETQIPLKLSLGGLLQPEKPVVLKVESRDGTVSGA
# Chain of Cytochrome P450 2C19 (P33261 whole entry): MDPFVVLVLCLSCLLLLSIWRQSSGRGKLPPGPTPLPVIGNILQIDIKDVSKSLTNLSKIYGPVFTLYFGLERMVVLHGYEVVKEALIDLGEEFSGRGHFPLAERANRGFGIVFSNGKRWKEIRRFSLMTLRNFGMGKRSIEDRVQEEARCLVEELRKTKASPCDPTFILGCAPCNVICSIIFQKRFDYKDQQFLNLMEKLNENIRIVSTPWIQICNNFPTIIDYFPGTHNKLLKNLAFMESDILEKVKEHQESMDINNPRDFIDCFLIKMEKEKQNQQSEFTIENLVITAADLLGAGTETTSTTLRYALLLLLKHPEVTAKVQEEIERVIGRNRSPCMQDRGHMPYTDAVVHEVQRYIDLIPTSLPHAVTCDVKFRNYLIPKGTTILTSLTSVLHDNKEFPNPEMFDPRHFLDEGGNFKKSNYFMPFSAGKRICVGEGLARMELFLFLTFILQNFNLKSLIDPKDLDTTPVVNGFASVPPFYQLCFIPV
compound,measurement,setting,value
O=C(OCC(=O)N1CCN(c2ccccc2)CC1)c1ccc2ccccc2n1,IC50,[1],16.3 µM (active)
O=C(O)c1ccc(-c2ccc(-c3ccccc3)cc2)s1,IC50,[2],> 80 µM (inactive)
COc1ccc(OCCCn2cccc2/C=C2/C(=N)N3OC(C)=CC3=NC2=O)cc1,IC50,[3],10.9 µM (active)
Nc1c2c(nc3ccccc13)CCC[C@H]2O,AC50,[4],inconclusive
CCN(CC)c1ccc(NC(=O)CCNS(=O)(=O)c2ccc3c(c2)CCC(=O)N3)c(C)c1,AC50,[5],1.09 µM (active)
same,IC50,[6],42.6 µM (active)
CC1CCCN(Cc2c(O)ccc3c(O)c(-c4nc5ccccc5s4)c(=N)oc23)C1 (stereo unspecified),EC50,[7],13.9 µM (active)
same,EC50,[8],> 38 µM (not active)
same,EC50,[9],18.9 µM (active)
same,CC50,[10],17.2 µM (active)
same,EC50,[11],76.2 µM (active)
Cc1cccc(C)c1OCC(O)CN1CCC(CN2C(=O)c3cccc4cccc(c34)C2=O)CC1 (stereo unspecified),EC50,[7],11.7 µM (active)
same,EC50,[9],9.53 µM (active)
same,CC50,[10],23.4 µM (active)
same,EC50,[12],38.2 µM (active)
same,EC50,[13],9.04 µM (active)
same,EC50,[14],16.7 µM (active)
same,CC50,[15],7.63 µM (active)
O=C(OCC#CCSc1nc2ccccc2o1)c1ccco1,IC50,[1],10 µM (active)
FC(F)(F)C1CCCN(c2nsc3ccccc23)C1 (stereo unspecified),IC50,[6],13 µM (active)
Oc1cc(-c2ccccc2)nc2nc(SCc3ccccc3)nn12,IC50,[3],5.04 µM (active)
Cc1cc(C)cc(NC(=O)C2CCN(c3nc(C)cc(C)n3)CC2)c1,IC50,[3],105 µM (active)
Cc1ccc(NC(=O)CCSc2nnc(Cc3ccccc3)o2)cc1,IC50,[1],18.2 µM (active)
N#CC1=C2SCN(Cc3ccco3)CN2C(=O)CC1c1c(F)cccc1Cl (stereo unspecified),IC50,[6],84.4 µM (active)
S=C(NCCSCc1ccc(Cl)cc1Cl)Nc1ccccc1,EC50,[12],> 150 µM (not active)
same,EC50,[13],11.5 µM (active)
same,AC50,[4],inconclusive
same,EC50,[14],17 µM (active)
CNc1nc(-c2c(C)noc2C)nc2ccccc12,AC50,[16],12.6 µM (inconclusive)
same,AC50,[4],inconclusive
same,AC50,[17],3.98 µM (inconclusive)
CCOC(=O)CNc1c(-c2ccc(O)cc2)nc2ccccn12,IC50,[6],14.7 µM (active)
Nc1nc2ccc(O)cc2s1,IC50,[6],3.5 µM (active)
COc1ccc(C)cc1Nc1n[n+](-c2ccccc2)c(-c2c(Cl)cccc2Cl)s1,AC50,[18],4.16 µM (active)
same,CC50,[10],9.91 µM (active)
same,EC50,[19],> 120 µM (not active)
same,EC50,[20],12.6 µM (active)
same,EC50,[21],> 120 µM (not active)
C=C(C)C(=O)N1CC2(CC(c3cccc(NC(=O)c4ccccc4)c3)=NO2)C[C@@H]1C(N)=O (stereo partly specified),AC50,[4],inconclusive
CC(Oc1ccc(Cl)cc1Cl)c1nc(-c2ccc(NC(=O)c3ccncc3)cc2)no1 (stereo unspecified),EC50,[22],> 60 µM (not active)
same,AC50,[23],6.83 µM (active)
same,EC50,[24],1.46 µM (active)
same,AC50,[25],21.7 µM (active)
same,IC50,[2],> 80 µM (inactive)
same,AC50,[26],3.93 µM (active)
O=C(Oc1cccnc1)c1ccc(Cl)c(Cl)c1,IC50,[1],1.31 µM (active)
CCOC(=O)Cn1c(-c2ccccc2)ccc(C#N)c1=O,IC50,[1],7.5 µM (active)
CC(C)(C)OC(=O)[C@H]1[C@H](c2ccc([N+](=O)[O-])cc2)C2(C(=O)c3ccccc3C2=O)C2c3ccccc3C=NN21 (stereo partly specified),IC50,[3],2.23 µM (active)
COc1cccc2cc(C(=O)CC3(O)C(=O)N(Cc4ccccc4)c4ccccc43)c(=O)oc12 (stereo unspecified),AC50,[4],inconclusive
Cc1ccc(-n2c(=O)c3c4c(sc3n3c(S)nnc23)CCC4)cc1,IC50,[6],30.9 µM (active)
O=S(=O)(c1cc(F)ccc1F)N1CCN(c2ncnc3ccccc23)CC1,AC50,[18],2.26 µM (active)
same,AC50,[23],33.6 µM (active)
same,AC50,[25],4.86 µM (active)
same,IC50,[2],65.1 µM (inactive)
same,AC50,[26],1.85 µM (active)
Oc1oc(-c2ccco2)nc1/C=N/c1cccc(Cl)c1,IC50,[1],> 50 µM (active)

# Source: ChEMBL document CHEMBL1201862, “PubChem BioAssay data set” (2004)
